Results: PubChem BioAssay (NCI)
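Assay format: 96-well plates, 48-hour exposure. Here, GI50 denotes the concentration required for 50% inhibition of growth. TGI: concentration producing complete growth inhibition.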

Experiments:
Experiment in all cases: DTP human tumour cell line panel, 48 h
NCI/ADR-RES ovarian = test system: NCI/ADR-RES ovarian
NCI-H522 lung = test system: NCI-H522 lung
CAKI-1 renal = test system: CAKI-1 renal
HCC-2998 colon = test system: HCC-2998 colon
U251 CNS = test system: U251 CNS
A549 NSCLC = test system: A549 NSCLC
CCRF-CEM leukemia = test system: CCRF-CEM leukemia
T-47D breast = test system: T-47D breast
HOP-62 NSCLC = test system: HOP-62 NSCLC
SF-295 CNS = test system: SF-295 CNS

| Compound | TGI (NCI/ADR-RES ovarian) | TGI (NCI-H522 lung) | TGI (CAKI-1 renal) | TGI (HCC-2998 colon) | TGI (U251 CNS) | TGI (A549 NSCLC) | TGI (CCRF-CEM leukemia) | TGI (T-47D breast) | TGI (HOP-62 NSCLC) | TGI (SF-295 CNS) | GI50 (NCI/ADR-RES ovarian) | GI50 (NCI-H522 lung) | GI50 (CAKI-1 renal) | GI50 (HCC-2998 colon) | GI50 (U251 CNS) | GI50 (A549 NSCLC) | GI50 (CCRF-CEM leukemia) | GI50 (T-47D breast) | GI50 (HOP-62 NSCLC) | GI50 (SF-295 CNS) |
| --- | --- | --- | --- | --- | --- | --- | --- | --- | --- | --- | --- | --- | --- | --- | --- | --- | --- | --- | --- | --- |
| O=C1/C(=C/c2ccc(Cl)cc2)CCC1CN1CCOCC1 (configuration not stated) | 22.5 µM | 5.15 µM | 9.46 µM | 23 µM | 40.2 µM | 55.9 µM | 6.84 µM | 6.25 µM | 35.1 µM | 38.1 µM |  |  |  |  |  |  |  |  |  |  |
| CN(C)c1ccc2cc3ccc(N(C)C)cc3nc2c1 | 5.06 µM | 7.56 µM | 13.5 µM | 2.64 µM | 5.79 µM | 7.49 µM |  | 36.4 µM | 7.18 µM | 15.2 µM |  |  |  |  |  |  |  |  |  |  |
| Cc1ccc2nc3c(n2c1)C(=O)C(=O)c1ccccc1-3 | 2.51 µM | 0.538 µM | 2.71 µM | 2.19 µM | 0.419 µM | 0.62 µM | 3.37 µM | 1.74 µM | 0.961 µM | 0.937 µM | 0.348 µM | 0.216 µM | 1.28 µM | 0.707 µM | 0.176 µM | 0.199 µM | 0.429 µM | 0.389 µM | 0.353 µM | 0.287 µM |
| CNC(=O)c1cc(Oc2ccc3nc(N[C@@H]4CCCC[C@H]4O)sc3c2)ccn1 | > 100 µM | > 100 µM | > 100 µM | > 100 µM | > 100 µM | > 100 µM | > 100 µM | > 100 µM | > 100 µM | > 100 µM | 49.2 µM | > 76.7 µM | 44.9 µM | > 100 µM | 50.1 µM | 62.5 µM | 43.1 µM | 21.1 µM | > 67.3 µM | 31.6 µM |
| Clc1ccc2nc(Cl)c3ccccc3c2c1 | > 100 µM | > 100 µM | > 100 µM | > 100 µM | 19.9 µM | > 100 µM | 52.9 µM | > 100 µM | 64.2 µM | 35.7 µM | 17.8 µM | 63.4 µM | > 100 µM | > 100 µM | 3.21 µM | 5.92 µM | 20.6 µM | 4.02 µM | 11.5 µM | 10.5 µM |
| Cc1ccc(-c2cc(-c3ccc(C)cc3)nc(N3CCN(CCNc4ccnc5cc(Cl)ccc45)CC3)n2)cc1 | 11.1 µM | 22 µM | 16.4 µM | 16.2 µM | 5.39 µM | 13.3 µM | > 50 µM | 17.9 µM | 6.52 µM | 15.4 µM | 2.53 µM | 5.65 µM | 7.56 µM | 4.82 µM | 1.43 µM | 3.62 µM | 1.77 µM | 3.21 µM | 1.58 µM | 5.27 µM |
| O=c1c2c(=NCCN3CCCC3)cc3c(=O)n(CCCN4CCOCC4)c(=O)c4ccc(c(O)n1CCCN1CCOCC1)c2c4-3 | 12 µM | 0.438 µM | 1.41 µM | 0.563 µM | 1.95 µM | 3.44 µM | 1.59 µM | 2.2 µM | 0.832 µM | 0.84 µM | 0.166 µM | 0.102 µM | 0.218 µM | 0.0603 µM | 0.11 µM | 0.0441 µM | 0.0532 µM | 0.273 µM | 0.0577 µM | 0.231 µM |
| O=C(Oc1ccccc1Cl)c1ccccc1Nc1cccc(C(F)(F)F)c1 | 44.4 µM | 52.4 µM | 49 µM | 26.7 µM | 58.2 µM | > 100 µM | 12.3 µM | > 100 µM | 70.5 µM | 54.3 µM | 19 µM | 19.5 µM | 20.7 µM | 12.6 µM | 23.6 µM | 36 µM | 3.42 µM | 43.4 µM | 24.6 µM | 24.8 µM |
| CN(C)c1ccc(Nc2c3ccccc3nc3cc(NC(=O)CCN4CCCC4)ccc23)cc1 | 12.9 µM | 2.21 µM | 2.19 µM | 2.26 µM | 1.58 µM | 1.75 µM | 1.38 µM | 2.43 µM | 1.56 µM | 1.51 µM | 2.91 µM | 0.541 µM | 0.594 µM | 0.627 µM | 0.227 µM | 0.0688 µM | 0.0778 µM | 0.455 µM | 0.235 µM | 0.362 µM |
| O=C1/C(=C/c2ccc(Cl)cc2)CN(C(=O)CCN2CCC(=NO)CC2)C/C1=C\c1ccc(Cl)cc1 | 3.75 µM | 2.29 µM | 1.85 µM | 1.88 µM | 1.28 µM | 3.77 µM | > 22.3 µM | 4.26 µM | 2.41 µM | 2.86 µM | 0.93 µM | 0.731 µM | 0.649 µM | 0.699 µM | 0.53 µM | 1.65 µM | 0.317 µM | 1.08 µM | 0.894 µM | 1.46 µM |
| Fc1ccc([C@@H]2CCNC[C@H]2COc2ccc3c(c2)OCO3)cc1 | 30 µM | 25.4 µM | 25.3 µM | 4.39 µM | 21.1 µM | 29 µM |  | 20.4 µM | 27.4 µM | 17.1 µM | 14 µM | 12 µM | 12.1 µM | 2.1 µM | 8.18 µM | 14.6 µM |  | 5.53 µM | 13.3 µM | 4.07 µM |
| O=C(Nc1ccc(Oc2ccc(NC(=O)Nc3ccc([N+](=O)[O-])cc3)cc2)cc1)Nc1ccc([N+](=O)[O-])cc1 | > 91.3 µM | 4.32 µM | 7.55 µM | 8.02 µM | 12.5 µM | > 78.8 µM | 3.22 µM | 6.74 µM | 7.96 µM | 17.9 µM | 3.88 µM | 1.03 µM | 2.34 µM | 2.28 µM | 2.16 µM | 2.61 µM | 0.61 µM | 0.944 µM | 2.64 µM | 1.17 µM |
| Oc1ccc(Oc2cnc3cc(Cl)ccc3n2)cc1 | > 100 µM | > 100 µM | 68.2 µM | 61.6 µM | > 100 µM | > 100 µM | 79.9 µM | > 100 µM | > 100 µM | 74.5 µM | 35.7 µM | 19.1 µM | 21.8 µM | 24.1 µM | 54.7 µM | 61.8 µM | 1.62 µM | 32.8 µM | > 100 µM | 22.6 µM |
